Read-outs that look alike come from different tables or passages of the source.
Legend:
[1] = test system: primary human peripheral blood mononuclear cells (PBM); experiment: MTS cytotoxicity assay, PBM cells; details: read-out: PBM CC50; 5 days
[2] = test system: SARS-CoV-2 (hCoV-19/USA-WA1/2020) in Vero CCL-81 cells; experiment: microbe, parasite or virus in culture; type: cell-based; details: for EC90: read-out: Vero CCL-81 SARS-CoV-2 EC90; for EC50: read-out: Vero CCL-81 SARS-CoV-2 EC50
[3] = test system: COVID-19 / SARS-CoV-2 infection; details: cited from earlier work
[4] = test system: SARS-CoV-2 (hCoV-19/USA-WA1/2020) in Caco-2 cells
Huh-7 cells [5] = experiment: MTS cytotoxicity assay, Huh-7 cells; details: read-out: Huh7 CC50; 4 days
CCRF-CEM cells [6] = experiment: MTS cytotoxicity assay, CEM cells; details: read-out: CEM CC50; 4 days
[7] = test system: SARS-CoV-2 (hCoV-19/USA-WA1/2020) in Calu-3 cells; experiment: microbe, parasite or virus in culture; type: cell-based; details: for EC90: read-out: Calu-3 SARS-CoV-2 EC90; for EC50: read-out: Calu-3 SARS-CoV-2 EC50
Huh-7 cells [8] = details: human
in vitro [9] = details: human
in vitro [10] = details: African green monkey
in vitro [11] = details: human, Caco-2
in vitro [12] = details: human; remark: listed apart in the source
[13] = test system: SARS-CoV-2 (hCoV-19/USA-WA1/2020) in Caco-2 cells; experiment: microbe, parasite or virus in culture; details: Severe acute respiratory syndrome coronavirus 2, Caco-2, 72 h; for EC50: read-out: Caco-2 SARS-CoV-2 EC50; for EC90: read-out: Caco-2 SARS-CoV-2 EC90
Vero CCL-81 cells = details: African green monkey
CCRF-CEM cells [14] = details: human
[15] = human, in vivo
[16] = cited from earlier work
[17] = test system: primary human peripheral blood mononuclear cells (PBM); details: human
[18] = Peak plasma concentration
in vitro [19] = details: human; remark: listed apart in the source
in vitro [20] = details: human; remark: listed apart in the source
[21] = MTS cytotoxicity assay, Caco-2 cells; details: human
[22] = MTS cytotoxicity assay, PBM cells; details: human
[23] = MTS cytotoxicity assay, Calu-3 cells; details: human
[24] = MTS cytotoxicity assay, Huh-7 cells; details: human
[25] = MTS cytotoxicity assay, CEM cells; details: human, CEM CC50, 4 days
[26] = MTS cytotoxicity assay, Vero CCL-81 cells; details: African green monkey
[27] = remdesivir following IV infusion; cited from earlier work
[28] = African Green monkeys, oral; cited from earlier work
[29] = Severe acute respiratory syndrome coronavirus 2, 48 h
[30] = Severe acute respiratory syndrome coronavirus 2, Calu-3, 72 h
[31] = Severe acute respiratory syndrome coronavirus 2, Table 1 drugs, MOI 0.1, 48 h, 2% FBS
[32] = Severe acute respiratory syndrome coronavirus 2, Calu-3, MOI 0.01, 72 h, 2% FBS
[33] = Table 1, ref column Refs of Table 1

Iota-Carrageenan
CC50 [1]: > 100 µM
EC90 [2]: 1.6 µM
absolute risk reduction ([3]; topical nasal spray, 300 hospital personnel): 4%
EC90 ([4]; Caco-2): 93.3 µM
CC50 (Caco-2 cells): > 100 µM
CC50 (Huh-7 cells [5]): > 100 µM
CC50 (CCRF-CEM cells [6]): 95.9 µM
EC90 [7]: 1.9 µM
CC50 (Calu-3 cells): > 100 µM

O=c1c2ccccc2[se]n1-c1ccccc1 [Ebselen]
Huh7 CC50 {Unbound} (Huh-7 cells [8]; 4 days): 76.3 µM
EC50 [2, 29]: 1.1 µM
EC90 [2, 29]: 2.7 µM
CC50 at 3 days (in vitro [9]): > 100 µM
CC50 at 3 days (in vitro [10]): 22.4 µM
CC50 at 3 days (in vitro [11]): > 100 µM
CC50 at 5 days (in vitro [12]): 93.2 µM
EC50 [13]: > 100 µM
Vero CC50 {Unbound} (Vero CCL-81 cells; 3 days): 20.3 µM
EC50 [7, 30]: 6.5 µM
EC90 [7, 30]: > 10 µM
CEM CC50 {Unbound} (CCRF-CEM cells [14]; 4 days): 42.3 µM
Cmax (μM) {unbound} [15]: 0.013 µM
Fun (unbound fraction of drug in plasma) ([16]; plasma): 0.05
PBM CC50 {Unbound} ([17]; 5 days): 75.5 µM

COC(=O)N[C@H](C(=O)N1CCC[C@H]1c1nc(-c2ccc(-c3ccc(-c4c[nH]c([C@@H]5CCCN5C(=O)[C@@H](NC(=O)OC)C(C)C)n4)cc3)cc2)c[nH]1)C(C)C [Daclatasvir]
Huh7 CC50 {Unbound} (Huh-7 cells [8]): 53.6 {48.3} μM
EC50 [2, 31]: 0.7 µM
EC90 [2, 31]: 3.5 µM
Cmax (μM) {unbound} ([18]; Table 1, Cmax × Fun): 0.02 µM
Caco-2 Unbound Cmax/EC50 ([4]; Caco-2): 0.0005
CC50 (in vitro [10]): 50.6 µM
CC50 (in vitro [11]): 67.6 µM
EC50 [13]: 44.7 µM
EC90 [13]: 89.4 µM
Vero CC50 {Unbound} (Vero CCL-81 cells): 50.6 {45.6} μM
EC50 [7, 32]: > 100 µM
CEM CC50 {Unbound} (CCRF-CEM cells [14]): 26.2 {23.6} μM
Fun (unbound fraction of drug in plasma) [16, 33]: 0.01
PBM CC50 {Unbound} [17]: 36.4 {29.2} μM

CC(C)(C)[C@H](NC(=O)C(F)(F)F)C(=O)N1C[C@H]2[C@@H]([C@H]1C(=O)N[C@H](C#N)C[C@@H]1CCNC1=O)C2(C)C [Nirmatrelvir]
CC50 (in vitro [19]): > 100 µM
EC50 [2, 29]: 3.7 µM
EC90 [2, 29]: 5.6 µM
CC50 (in vitro [9]): > 100 µM
Cmax (μM) {unbound} ([18]; Table 1, Cmax × Fun): 2.13 µM
Caco-2 Unbound Cmax/EC50 ([4]; Caco-2): 6.8
CC50 (in vitro [10]): > 100 µM
CC50 (in vitro [11]): > 100 µM
CC50 (in vitro [12]): > 100 µM
CC50 (in vitro [20]; CEM CC50, 4 days): > 100 µM
EC50 [13]: 0.1 µM
EC90 [13]: 0.3 µM
EC50 [7, 30]: 1.8 µM
EC90 [7, 30]: 8.8 µM
Fun (unbound fraction of drug in plasma) [16, 33]: 0.31

COCCCC/C(=N\OCCN)c1ccc(C(F)(F)F)cc1 [Fluvoxamine (maleate)]
CC50 at 3 days [21]: > 100 µM
CC50 at 5 days [22]: 35.4 µM
EC50 [2, 31]: > 100 µM
anti-SARS-CoV-2 activity (in words), concentrations up to 100 μM ([2]; Vero CCL-81 cells, up to 100 μM): inactive
Cmax (μM) {unbound} ([18]; human, in vivo): 0.003 µM
Caco-2 Unbound Cmax/EC50 ([4]; Cmax × Fun/EC50): 0.0017
EC50 [13]: 17.9 µM
EC90 [13]: 47.5 µM
CC50 at 3 days [23]: > 100 µM
CC50 at 4 days [24]: 36.7 µM
CC50 at 4 days [25]: 20 µM
EC50 [7, 32]: > 100 µM
CC50 at 3 days [26]: 35.5 µM
Fun (unbound fraction of drug in plasma) [16, 33]: 0.23

CCC(CC)COC(=O)[C@H](C)N[P@](=O)(OC[C@H]1O[C@@](C#N)(c2ccc3c(N)ncnn23)[C@H](O)[C@@H]1O)Oc1ccccc1 [Remdesivir]
EC50 [2, 31]: 3.2 µM
EC90 [2, 31]: 4.7 µM
shortening of hospitalization duration ([3]; IV remdesivir, hospitalized patients with COVID-19, ACTT-1 trial): 5 days
reduction in hospitalizations ([3]; IV, 3-day course, high-risk non-hospitalized patients, PINETREE trial): 87%
Cmax (μM) {unbound} ([18]; Table 1, Cmax × Fun): 0.44 µM
plasma t1/2 [27]: ~ 1 h
Caco-2 Unbound Cmax/EC50 ([4]; Caco-2): 22
fraction of orally administered drug entering the systemic circulation intact [28]: < 1%
CC50 (in vitro [10]): > 100 µM
CC50 (in vitro [11]): > 100 µM
EC50 [13]: 0.02 µM
EC90 [13]: 0.1 µM
EC50 [7, 32]: 0.2 µM
EC90 [7, 32]: 0.7 µM
Fun (unbound fraction of drug in plasma) [16, 33]: 0.12

NC(=O)c1nc(F)c[nH]c1=O [Favipiravir]
CC50 at 4 days (in vitro [19]): > 100 µM
EC50 [2, 31]: 90.6 µM
EC90 [2, 31]: 234 µM
CC50 at 3 days (in vitro [9]): > 300 µM
Caco-2 Unbound Cmax/EC50 ([4]; Caco-2): 0.74
CC50 at 3 days (in vitro [10]): > 100 µM
CC50 at 3 days (in vitro [11]): > 300 µM
CC50 at 5 days (in vitro [12]): > 100 µM
CC50 at 4 days (in vitro [20]): > 100 µM
EC50 [13]: 256 µM
EC90 [13]: > 300 µM
EC50 [7, 32]: > 300 µM
Cmax (μM) {unbound} [15]: 193 µM

From publication PMC11053489 (Viruses, 2024)
